Earlier results as cited in PMC12682717, “Radiolabelling and bioequivalence of modified Tamoxifen solid lipid nanoparticles as a targeted chemotherapeutic drug” (Drug Delivery and Translational Research, 2025).
Counter-ions that a name gives are not always drawn.

What was measured:
[1] = parameters: method as in PMID 32151063, PMID 37906415; details: patients
[2] = no reference given

- biopharmaceutical categorization system (BCS) class [2]: class II
Compound: CC/C(=C(\c1ccccc1)c1ccc(OCCN(C)C)cc1)c1ccccc1 [TAM, Tamoxifen citrate]
- side effect: depression, irritability or vaginal dryness [1]: 35%
- side effect: hot flashes [1]: 64%
- side effect: mood swings [1]: 6%
- side effect: sleep issues [1]: 36%
- side effect: weight gain [1]: 6%
